Test results published in ChEMBL document CHEMBL2146395, “[¹⁸F]FE@SNAP-A new PET tracer for the melanin concentrating hormone receptor 1 (MCHR1): microfluidic and vessel-based approaches” (Bioorg Med Chem, 2012).
Blank lines part the entries; values can stand above or below the molecule they belong to. Active and inactive are the calls of the source. The calls are words filed in the database; no cut-off is given here.

Assays:
[1] = target: T1, Melanin-concentrating hormone receptor 1 (Homo sapiens, UniProt Q99705); test: Binding affinity to human MCHR1 expressed in CHO cell membranes; details: tested as the 18F-labelled form
T1 sequence (Q99705 whole entry): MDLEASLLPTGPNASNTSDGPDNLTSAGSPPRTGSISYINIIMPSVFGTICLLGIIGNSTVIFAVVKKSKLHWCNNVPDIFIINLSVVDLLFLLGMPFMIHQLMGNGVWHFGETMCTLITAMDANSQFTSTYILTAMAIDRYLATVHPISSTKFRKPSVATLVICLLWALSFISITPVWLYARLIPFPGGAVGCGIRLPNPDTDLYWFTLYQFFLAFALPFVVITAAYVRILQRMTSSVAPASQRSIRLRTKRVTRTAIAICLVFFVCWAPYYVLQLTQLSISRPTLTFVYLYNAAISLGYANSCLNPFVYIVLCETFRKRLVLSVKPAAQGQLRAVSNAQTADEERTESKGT

carboxyl esterase = test: Drug degradation after 6 hrs in presence of carboxyl esterase; format: physicochemical; details: read-out: Drug degradation
[2] = Drug degradation in human plasma up to 120 mins; format: ADME, cell-free; details: read-out: Drug degradation
[3] = target: T1, Melanin-concentrating hormone receptor 1; test: Binding affinity to human MCHR1 expressed in COS7 cells; format: cell-based, COS-7

Activity [1]: Active
Compound: COCC1=C(C(=O)OCCF)C(c2ccc(F)c(F)c2)N(C(=O)NCCCN2CCC(c3cccc(NC(C)=O)c3)CC2)C(=O)N1 (centres undefined)

metabolised at 6 h (carboxyl esterase): 20% | metabolised at 2 h [2]: < 5%
Compound: COCC1=C(C(=O)OCC[18F])C(c2ccc(F)c(F)c2)N(C(=O)NCCCN2CCC(c3cccc(NC(C)=O)c3)CC2)C(=O)N1 (centres undefined)

Kd [3]: 0.18 nM
Compound: COCC1=C(C(=O)OC)[C@H](c2ccc(F)c(F)c2)N(C(=O)NCCCN2CCC(c3cccc(NC(C)=O)c3)CC2)C(=O)N1
